According to patent US11241410B2, “Method and compound for the treatment of covid-19” (priority 2020, dated 2022):
pEC50, pIC50: −log10 of the molar value. Values after ≈ are worked out from the molar mass of the structure shown. “Also recorded” adds a separate entry of the source.

How the values were obtained:
[1] = test system: ovariectomized adult Spraque-Dawley (CD) rats; conditions: 500-2000 mg/kg/day for 7 days, oral gavage, up to maximally tolerated dose; cited from earlier work
[2] = test system: HIV; assay: HIV in vitro tests (Table 1); type: cell-based; conditions: Human immunodeficiency virus 1
[3] = test system: eye of the rabbit; conditions: single instillation, listed as DEGD; cited from earlier work
[4] = test system: Pseudomonas putida; conditions: cited from earlier work
[5] = test system: mouse lymphoma cells; conditions: with and without metabolic activation; cited from earlier work
[6] = test system: intact rabbit skin; conditions: semi-occlusive, four hours, listed as DEGD; cited from earlier work
[7] = test system: SARS-CoV-2; assay: microbe, parasite or virus in culture; type: cell-based
[8] = test system: rat; conditions: cited from earlier work
[9] = cited from earlier work
[10] = test system: Daphnia; conditions: in vivo; cited from earlier work
[11] = test system: Vero E6 cells; assay: Toxicity in Vero E6 cells; type: cell-based
Description: Remdesivir was used as a control and verified that the assay was working. The first independent trial (done in quadruplicate) involved using the very first BTS compound sent to us, dissolved at 10 ug/ml in DMSO. Toxicity was observed ˜0.078 ug/ml ([…] based on the molecular weight we were given and the concentration of the drug). The dose curve (log (inhibitor) vs. response (three parameters)) yielded the nicest curve, but only reached a maximum of ˜20% protection. […] Twenty-two 2-fold dilutions of the drug starting from 10 ug/ml (˜323 uM).
FIG. 18 illustrates a graph showing 90I toxicity in Vero E6 cells, according to an exemplary embodiment of the present general inventive concept.

[12] = Table 10 summary; cited from earlier work
[13] = test system: MDR-27221 HIV strain; assay: microbe, parasite or virus in culture; type: cell-based, HIV-1
[14] = test system: rats; conditions: cited from earlier work
[15] = test system: rats; conditions: OECD 401; cited from earlier work
[16] = test system: Pimephales promelas; conditions: acute, 96 h; cited from earlier work
[17] = test system: activated sludge; conditions: cited from earlier work
[18] = test system: Eisenia foetida; conditions: cited from earlier work
[19] = cited from earlier work; remark: listed apart in the source
[20] = test system: CEM-SS cells; assay: Drug induced toxicity in CEM-SS cells; type: cell-based; conditions: Homo sapiens, read-out: 50% inhibitory concentration (IC50), drug induced toxicity, high-test concentration 100 ug/ml
[21] = rats, cited from earlier work
[22] = test system: guinea pigs; conditions: intradermal and topical, listed as DEGD; cited from earlier work
[23] = test system: gamma interferon; assay: Production of gamma interferon by cells; type: cell-based; conditions: compared with positive control PMA-Ionomycin combination
Source text: FIG. 4 illustrates a graph showing production of gamma interferon by cells receiving 90I compared to other drugs, according to an exemplary embodiment of the present general inventive concept.
Referring to FIG. 4, furthermore, 90I has proven to stimulate the production of gamma interferon (i.e. a dimerized soluble cytokine that is the only member of the type II class of interferons and is a product of human leukocytes and human lymphocytes). More specifically, […] and differentiate into tissue macrophages, such that each of the tissue macrophages may serve as a vehicle for transporting viruses to a variety of tissues. The ability of antiretroviral agents to cross the blood brain barrier is one important consideration, since the brain acts as a sanctuary for viruses as well as a site for disease progression.
Referring again to FIG. 4, activated CD8+ cells are reported to produce high levels of gamma interferon, which may be involved in the anti-HIV-1 immune responses, contributing to both control of viral spread and concomitant lymphoid follicular lyses. […] This finding may have a far-reaching implication and relevant to interleukin 12 (IL-12) (i.e. a cytokine that is produced by activated antigen-presenting cells, such as dendritic cells and/or macrophages). […]

[24] = test system: bacterial; conditions: with and without metabolic activation; cited from earlier work
[25] = test system: RF laboratory strain of HIV-1; assay: Antiviral drug assay in CEM-SS cells; type: cell-based; conditions: Human immunodeficiency virus 1, CEM-SS, read-out: 50% effective concentration (EC50)
[26] = test system: Seleneastrum capricornutum; conditions: in vivo; cited from earlier work
[27] = test system: rats; conditions: cited from earlier work; remark: listed apart in the source
[28] = test system: CHL cells; conditions: cited from earlier work
[29] = test system: dogs; conditions: up to 300 mg/kg/day for 90 days; cited from earlier work
[30] = 28 days; cited from earlier work
[31] = Severe acute respiratory syndrome coronavirus 2, preliminary, first independent trial
[32] = from ppm by standard conversion factors

O=C(OCCOCCOC(=O)c1ccccc1)c1ccccc1 [90I, diethylene glycol dibenzoate]
estrogenic activity [1]: did not exhibit estrogenic activity
pEC50 [2]: 9.52
Eye irritation [3]: transient very slight conjunctival irritation only; also recorded: Slight
EC50 (P. putida) ([4]; Table 11): EC50 >10 mg/L
inhibitory effect (1050) ([4]; highest testable concentration 10 mg/L): > 10 mg/L
mutagenic potential, mammalian cell [5]: did not demonstrate mutagenic potential
Skin irritation [6]: No dermal reaction and No
pEC50 [7, 31]: 5.39
pIC50 [7, 31]: 8.55
maximum protection ([7]; dose curve log(inhibitor) vs. response, SARS-CoV-2 infected cells): ~20%
Repeat dose, NOAEL ([8]; Table 10 summary): 1,000 mg/kg bw/day
NOAEL ([8]; rat, thirteen week, diet): 1,000 mg/kg bw
Log P [9]: 3.04
EC50 for Daphnia [10]: 6.7 µg/mL
concentration at which toxicity was observed ([11]; Vero E6, converted with molecular weight given): ~2500 nM
concentration at which toxicity was observed ([11]; Vero E6, first independent trial, quadruplicate): ~78 ng/mL
Genotoxicity [12]: Negative
EC50 ([13]; Human immunodeficiency virus 1): 3 µg/mL (≈ 9.54 µM)
inhibition of the MDR strain ([13]; MDR-27221): strong inhibitory activity
Maternal toxicity ([14]; Table 10 summary): 1,000 mg/kg bw/day
Reproductive toxicity (NOEL) ([14]; Table 10 summary): 250 mg/kg bw/day
Reproductive toxicity NOAEL ([14]; Table 10 summary): 500 mg/kg bw/day
Reproductive toxicity, D ([14]; Table 10 summary): D: Yes
NOAEL for prenatal development ([14]; rats, diet): 500 mg/kg/day
NOEL for fetal growth and development ([14]; rats, diet): 250 mg/kg/day
NOEL for maternal toxicity ([14]; rats, diet): 1,000 mg/kg/day
LD50, oral [15]: 4,198 mg/kg bw
LC50 to fish [16]: 3.9 µg/mL (≈ 12.4 µM)
NOEC, activated sludge ([17]; Table 11): NOEC ≥100 mg/L,
activated sludge respiration ([17]; at 100 mg/L): not inhibited
LC50 (14 d), earthworm ([18]; 14 d, Table 11): d) >1,000 mg/kg
acute toxicity to earthworm ([18]; 14 days): greater than 1,000 ppm
Water solubility [19]: 193 µg/mL
IC50 [20]: > 100 µg/mL
time within which almost all of the dose was adsorbed, metabolized and excreted in the urine ([21]; single oral doses of 50 and 750 mg/kg): ≤ 24 h
metabolic pathway ([21]; single oral doses): hydrolysis of the ester bonds to benzoic acid
Sensitisation [22]: No allergic skin reaction and Not
amount of gamma interferon produced [23]: equivalent to that of the positive control
mutagenic potential, bacterial [24]: did not demonstrate mutagenic potential
EC50 [25]: 0.02 µg/mL (≈ 0.0636 µM)
growth rate-based EC50 for algae [26]: 11 µg/mL
Reproductive toxicity, R ([27]; Table 10 summary): R: No
NOAEL for the FO and FI parent animals [27, 32]: 500 mg/kg bw/day
NOAEL for the developing offspring [27, 32]: 165 mg/kg bw/day
NOEL for reproductive parameters [27, 32]: 500 mg/kg bw/day
NOAEL for the FO and FI parent animals, dietary concentration ([27]; rats, 2-generation, diet): 10,000 ppm
NOAEL for the developing offspring, dietary concentration ([27]; rats, 2-generation, diet): 3,300 ppm
NOEL for reproductive parameters, dietary concentration ([27]; rats, 2-generation, diet): 10,000 ppm
clastogenic activity [28]: No response considered to be indicative of clastogenic
effects of dietary administration [29]: No effects
biodegradation [30]: 93 % of ThOD
